The test system of data set [1] is PKC. The note with it: cited from earlier work.
In data set [2] the test system is sAPP secretion, control fibroblasts. The note with it: cited from earlier work.
The subject of data set [3] is Transgenic mice carrying the V7171 mutation. In words: Transgenic mice carrying the V7171 APP mutation, APP species in brain and health. Format: in vivo. The note with it: for deaths: 5-6 months old animals. Here is the method:
Transgenic mice carrying the V7171 mutation were treated with BL (1 mg/kg, i.p.; daily) from […] of age (after weaning) for 17 weeks (n=4). The control group (n=4) received vehicle alone (Tween 20 1%, DMSO 25%, 74% PBS). Another experimental group consisted of 5-6 months old animals treated for 7 weeks. Subgroups of these animals were treated with BL 1 mg/kg, daily (n=5); BL 10 mg/kg, daily (n=3; due to two deaths); BL 10 mg/kg, weekly (n=4; one death), LQ12 10 mg/kg, daily (n=5); and LQ12 10 mg/kg, weekly (n=5). Five additional animals received vehicle alone for the same period. After completion of the treatment, animals were euthanized according to K.U.L. (Belgium) guidelines. Brains were removed and prepared for biochemical analyses of APP species.
Immunoblot analysis. The biochemical analysis of intermediates of APP metabolism has been described elsewhere by Dewachter et al. (Aging increased amyloid peptide and caused amyloid plaques in brain of old APP/V7171 transgenic mice by a different mechanism than mutant presenilinl. J. Neurosci. 2000; 20:6452-8.). Briefly, brains were homogenized in 6.5 vol. of ice-cold buffer containing 20 mm Tris-HCl, pH 8.5, and a mixture of proteinase inhibitors (Roche, Darmstadt, Germany). After centrifugation at 135,000×g at 4° C. for 1 hr, the supernatant was centrifuged again for 2 hr at 200,000×g before analysis of soluble amyloid peptides by specified ELISA. The pellets from the first centrifugation were resuspended in TBS containing 2% Triton X-100, 2% Nonidet P40 and proteinase inhibitors and centrifuged at 100.000×g at 4° C. for 1 hr. This protein fraction was used for analysis of membrane-bound APP. Western blotting of membrane bound APP was performed on this protein fraction containing membrane-bound proteins, with monoclonal antibody 8E5. Total secreted APP and a-secretase cleaved secreted APP-a were detected by Western blotting analysis on the supernatant of the first centrifugation, with monoclonal antibody 8E5 and monoclonal antibody JRF14, respectively. Proteins were denatured and reduced in sample buffer containing a final concentration of 2% SDS, 1% 2-ME and separated on 8% TRIS Glycine gels (Novex, San Diego, Calif.). After incubation with appropriate secondary antibodies, all Western blots were developed with the ECL detection system and photographically recorded. Application of a series of diluted sample allowed quantitation. Densitometric scanning of films and normalization were performed using a flatbed optical density scanner and dedicated software for analysis and measurement (Image Master; Pharmacia, Uppsala, Sweden).
ELISA of amyloid peptides. Protein extracts were applied on reversed-phase columns (C18-Sep-pack cartridges; Waters Corporation, Milford, Mass.) and washed with increasing concentrations of acetonitrile (5, 25, and 50%) containing 0.1% trifluoroacetic acid. The last fraction contained the amyloid peptides and was dried in vacuo overnight and dissolved for measurements in ELISA. Sandwich ELISA for human […] peptides was performed using the capture antiserum JRF/cAβ40/10 and 21F12, respectively, and they were developed with monoclonal antibodies JRFcAβ/tot/14 hrpo and 3D6, respectively (Vanderstichele H, Van Kerschaver E, Hese C, Davidsson P, Buyse M A, Andreansen N, Minthon L, Wallin A, Blennow K, Vanmechelen E. Standardization of measurements of beta-amyloid (1-42) in cerebrospinal fluid and plasma. Amyloid 2000; 7: 245-258).
Standard general health assessment and open field were conducted in all animals prior to the biochemical assessments. In addition, a semi-quantitative ad hoc score was devised to measure abdominal contractions that followed the injections (+=weak, <2 min; […]).

Data set [4] deals with sAPPα secretion, AD cell line AG06848. Briefly: sAPPα secretion immunoblot, AD fibroblasts. It counts as cell-based, human. How it is done: Cultured skin fibroblasts were obtained from the Coriell Cell Repositories and grown using the general guidelines established for their culture with slight modifications (Cristofalo & Carpentier, 1988; Hirashima et al., 1996). The culture medium in which cells were grown was Dulbecco's modified Eagle's medium (GIBCO) supplemented with 10% fetal calf serum (Biofluids, Inc.). Fibroblasts from control cell lines (AC), cases AG07141 and AG06241, and a familial AD (FAD) case (AG06848) were utilized.
Cells grown to confluence in 6 cm Petri dishes for 5-7 days. On the day of the experiment, medium was replaced with DMEM without serum and left undisturbed for 2 h. Upon completion of the 2 hour serum deprivation; treatment was achieved by direct application to the medium of Bryo, BL and DMSO at the appropriate concentrations. (0.1 and 0.01 nM for bryostatin; 0.1 nM, 0.1 μM, and 1 μM BL). DMSO was less than 1% in all cases. In most cases, medium was collected and processed after 3 hours of treatment for sAPP secretion. Other time points were also used to establish a time course of secretion.
sAPP—Determinations/Measurements of sAPPα
The concentration of secreted APP was measured using conventional immunoblotting techniques, with minor modifications the protocol. Precipitated protein extracts from each dish/treatment were loaded to freshly prepared 10% acrylamide Tris-HCl minigels and separated by SDPAGE. The volume of sample loaded was corrected for total cell protein per dish. Proteins were then electrophoretically transferred to PVDF membranes. Membranes were saturated with 5% non-fat dry milk to block non-specific binding. Blocked membranes were incubated overnight at 4° C. with the commercially available antibody 6E10 (1:500), which recognizes sAPP-alpha in the conditioned medium (SENETEK). After washing, the membranes were incubated at room temperature with horseradish peroxidase conjugated anti-mouse IgG secondary antibody (Jackson's Laboratories). The signal was then detected using enhanced chemiluminescence followed by exposure of Hyperfilm ECL (Amersham). The band intensities were quantified by densitometry using a BioRad GS-800 calibrated scanning densitometer and Multianalyst software (BioRad).

Data set [5] concerns sAPP secretion, AD fibroblasts. The note with it: benzolactam-treated cells; cited from earlier work.
The target of another data set is T1, PKCε (Homo sapiens, UniProt Q02156).
T1 sequence (Q02156 1-737): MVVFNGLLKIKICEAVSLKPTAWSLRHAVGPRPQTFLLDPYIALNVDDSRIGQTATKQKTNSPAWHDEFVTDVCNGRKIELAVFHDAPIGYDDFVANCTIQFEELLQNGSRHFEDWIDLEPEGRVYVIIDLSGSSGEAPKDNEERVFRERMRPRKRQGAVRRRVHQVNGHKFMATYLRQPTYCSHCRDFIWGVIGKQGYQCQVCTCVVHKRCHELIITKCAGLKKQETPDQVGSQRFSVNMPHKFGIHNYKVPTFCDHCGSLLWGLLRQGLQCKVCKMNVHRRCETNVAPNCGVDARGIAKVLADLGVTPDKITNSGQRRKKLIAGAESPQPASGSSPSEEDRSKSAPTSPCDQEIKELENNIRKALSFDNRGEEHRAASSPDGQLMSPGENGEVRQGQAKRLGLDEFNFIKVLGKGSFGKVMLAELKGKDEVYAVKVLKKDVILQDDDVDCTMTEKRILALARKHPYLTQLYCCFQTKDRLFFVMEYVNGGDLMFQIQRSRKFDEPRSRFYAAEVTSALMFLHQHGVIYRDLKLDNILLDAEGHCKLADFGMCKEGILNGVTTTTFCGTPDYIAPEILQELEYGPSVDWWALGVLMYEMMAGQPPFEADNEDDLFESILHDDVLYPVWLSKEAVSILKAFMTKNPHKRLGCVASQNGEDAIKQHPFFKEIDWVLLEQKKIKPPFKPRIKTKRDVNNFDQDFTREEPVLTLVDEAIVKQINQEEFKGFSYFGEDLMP
The note with it: cited from earlier work.

Data set [6] addresses PKC. The note with it: competes with [3H]phorbol dibutyrate; read-out: Ki for binding; cited from earlier work.
For data set [7], the system named is squamous cell carcinoma and melanoma. The note with it: used topically; cited from earlier work.
In the next data set the test system is NCI 60 cell line screen. The note with it: cited from earlier work.
The target in another data set is protein kinase C. The note with it: (−)-enantiomer; cited from earlier work.
[8] abbreviates: 1 mg/kg i.p. daily from 3 weeks of age for 17 weeks.
[9] abbreviates: 1 mg/kg i.p. daily from 3 weeks of age for 17 weeks, vs vehicle.
Where [10] appears, read: 6 months old animals, 7 weeks, 10 mg/kg daily.
Where [11] appears, read: 6 months old animals, 7 weeks, 10 mg/kg weekly.
Where [12] appears, read: A-ring bryologs, read-out: affinity for PKC.

“Also recorded” adds a separate entry of the source. Read-outs that look alike come from different tables or passages of the source.

Turning to `CCCCCCCC(=O)O[C@H]1/C(=C/C(=O)OC)C[C@H]2C[C@H](CO)OC(=O)C[C@H](O)CCOCC[C@@H]3CCO[C@H](/C=C/C(C)(C)[C@]1(O)O2)O3` [Analog 2], in the data set on PKC [1], the “affinity for PKC, in words” value is “high affinity”. For the same molecule, the Ki on PKC [1] (read-out: PKC Affin) is 6.5 nM.

On to `CCCCCCCCC#Cc1ccc2c(c1)C[C@@H](CO)NC(=O)[C@H](C(C)C)N2C` [BL, benzolactam], for which the “concentration giving significant increases of sAPP secretion” value in data set [2] is 10 µM. Also, the APP membrane-bound result in data set [3] (setting [8]) is on record as “no differences”. In addition, in data set [3] (setting [8]), the “amount of Aβ42” value is “no differences”. For the same molecule, in data set [3] (setting [8]), the “total secreted sAPP (sAPPα+sAPPβ)” value is recorded as “no differences”. The Aβ40 in brain entry was “concomitant and proportional reduction” in data set [3] (setting [9]); “increase” in [3] (setting [10]); “slight decrease” in data set [3] (setting [11]). Besides, the sAPPα in brain result in [3] (setting [9]) is listed as “significant increase”; in data set [3] (6 months old animals, 7 weeks, 1 mg/kg daily), “no effect”; in data set [3] (setting [10]), “slight increase”; in data set [3] (setting [11]) it was “slight increase”. In addition, the general health result in data set [3] (1 mg/kg i.p. daily, 17 weeks) is listed as “no differences in general health”. Besides, in data set [3] (1 mg/kg i.p. daily, 17 weeks, vs vehicle group), the “intensity of abdominal contractions after injection” value is listed as “somewhat elevated”. Also, the deaths result in data set [3] (7 weeks, 10 mg/kg daily) is on record as “two deaths”; in data set [3] (7 weeks, 10 mg/kg weekly) it was “one death”. In [4] (AD cell line AG06848, 0.1 nM, three hours of treatment, relative to DMSO), the “secretion of sAPPα” value was “no real impact on secretion”. Also, in [5], the “sAPP secretion in AD cells compared to control fibroblasts” value is “slightly higher”.

For the molecule `CCCCCC1CC1CC1CC1CCCCCCCC(=O)O` (stereo not shown) [DCP-LA, 2-[(2-pentylcyclopropyl)methyl]cyclopropaneoctanoic acid], the “concentration of maximal effect on PKCε” value on PKCε is 100 nM.

Regarding `CC1=C[C@]23C(=O)[C@@H](C=C(COC(=O)c4ccccc4)[C@@H](O)[C@]2(O)[C@H]1OC(=O)c1ccccc1)[C@H]1[C@@H](C[C@H]3C)C1(C)C` [Ingenol 3,20-dibenzoate], the Ki on PKC [6] was 240 nM.

As for `C/C=C(/C)C(=O)O[C@H]1C(C)=C[C@]23C(=O)[C@@H](C=C(CO)[C@@H](O)[C@]12O)[C@H]1[C@@H](C[C@H]3C)C1(C)C` [Ingenol-3-angelate], the antitumor activity entry in data set [7] is “possesses antitumor activity”.

`CC1=CC[C@H](C)C(C)(C)[C@@H]1/C=C/C(C)=C/CC[C@@]1(CO)[C@H](CCCO)/C(=C(/C)C=O)CC[C@]1(C)O` [Iripallidal]: the “G150 (concentration required to inhibit growth by 50%)” value in the data set on NCI 60 cell line screen is on record as “micromolar to nanomolar range”.

As for `CCCCCCCC(=O)OC1C(=CC(=O)OC)CC2CC(CO)OC(=O)CC(O)CCOC(C(C)(C)C)CC3CCOC(C=CC(C)(C)C1(O)O2)O3` (stereo not shown) [bryolog 3], on PKC [1] (setting [12]), the Ki was 6.5 nM.

Take `CCCCCCCC(=O)OC1C(=CC(=O)OC)CC2CC(CO)OC(=O)CC(O)CCOC(c3ccccc3)CC3CCOC(C=CC(C)(C)C1(O)O2)O3` (stereo not shown) [bryolog 4]: the Ki at PKC [1] (setting [12]) was 2.3 nM.

As for `CCCCCCCC(=O)OC1C(=CC(=O)OC)CC2CC(CO)OC(=O)CC(O)CCOC(CCCc3ccc(Br)cc3)CC3CCOC(C=CC(C)(C)C1(O)O2)O3` (stereo not shown) [bryolog 5], on PKC [1] (setting [12]), the Ki was 1.9 nM.

Usually EC50 stands for the concentration at which the effect is half-maximal. Consider `CCCCCCCCc1ccc2c3c(c[nH]c13)C[C@@H](CO)NC(=O)[C@H](C(C)C)N2C` [octylindolactam V, Octylindolactam V], for which the EC50 at protein kinase C is 29 nM.

Take `CN[C@@H]1C[C@H]2O[C@@](C)([C@@H]1OC)n1c3ccccc3c3c4c(c5c6ccccc6n2c5c31)C(=O)NC4` [staurosporin]: the “effect of pre-treatment on bryostatin-induced sAPPα secretion” value in data set [4] (100 nM pre-treatment, bryostatin 0.1 nM) is “abolished the effects of 0.1 nM bryostatin; also recorded: completely abolished the effect”.

The values above are taken from US20090030055A1, “PKC activation as a means for enhancing s[sequence] secretion and improving cognition using bryostatin type compounds” (priority 2002, published 2009).
